Read-outs that look alike come from different tables or passages of the source.
Legend:
[1] = assay type: in vivo; conditions: specially selected whole soybean soy sauce
Method: (§1) Evaluation results of sweetness of test product compared with control • ∘: Sweetness was enhanced compared to the control. • ◇: Sweetness was similar to that of the control.
Soy sauces were prepared by adding ergothioneine to a commercially available specially selected whole soybean soy sauce (Kikkoman Corporation) to addition concentrations of 10 ppm, 20 ppm, and 50 ppm (EGR10, 20, 50).
(§2) A drinking test by a panel of three experts was conducted on the soy sauce to which ERG was added at each concentration (the concentration was not disclosed to the panel), using a soy sauce to which no ergothioneine was added (ERG0) as a control, and the sweetness was sensorially evaluated by a paired comparison test.

[2] = assay type: in vivo; conditions: amazake
Method: as §1
1,250 g of white rice was soaked in water overnight, transferred to a colander, and drained for 2 hours. Thereafter, the rice was wrapped in a Tetoron cloth and steamed at 100°C for 40 minutes. The steamed rice was cooled to 45°C, and a seed koji was inoculated. The rice was wrapped in a Pylen cloth, and koji-making was started under the conditions of 35°C and 95% humidity. 19 hours after the start of koji-making, the rice koji was loosened and wrapped again in the Pylen cloth. When the product temperature reached 40°C, the Pylen cloth was spread and the rice koji was leveled. After another 40 hours, the rice koji was well loosened and left to stand again. After 42 hours, the koji was taken out. […]
The sweetness of the amazake was sensorially evaluated by an expert panel consisting of five trained sweetness-sensitive subjects.
Pairs combining amazake containing ERG at different concentrations shown in Table 19 (ERG12 to 345) were presented to the expert panel of five, and the panelists evaluated which sample of the presented pair was perceived to be sweeter by a paired comparison test.

[3] = assay type: in vivo; conditions: ERG added to water to a final concentration of 60 ppm; all the five panelists
Method: In the same manner as in Test 1, sucrose samples having six concentrations of 0%, 1%, 1.5%, 2%, 2.5%, and 3%, and as a seventh sample, a sample in which ergothioneine was added to water to a final concentration of 60 ppm were prepared. A drinking test by the same expert panel of five as in Test 1 was conducted, and after tasting each sample and before tasting the next sample, the mouth was completely rinsed with water at room temperature, and sweetness was sensorially evaluated. The panel of five experts was asked to select a sample having an equivalent sweetness from among the 1st to 6th sucrose samples (the concentration was not disclosed to the panel) regarding the sweetness of the 7th sample.

[4] = Test 1: sensory evaluation by expert panel, selection of sucrose sample of equivalent sweetness; assay type: in vivo; conditions: 2% sucrose sample containing 60 ppm ERG; all the five panelists
Method: Sucrose was added to pure water to prepare sucrose samples having six concentrations of 0%, 1%, 1.5%, 2%, 2.5%, and 3%; and as a seventh sample, a sample in which purified ergothioneine (purity: 99.5% or more, Tetrahedron) was added to 2% sucrose to a final concentration of 60 ppm was prepared.
The sweetness was evaluated by a sensory evaluation by an expert panel consisting of five trained sweetness-sensitive subjects. The panel of five experts was asked to select a sample having an equivalent sweetness from among the 1st to 6th sucrose samples (the concentration was not disclosed to the panel) regarding the sweetness of the 7th 2% sucrose sample containing 60 ppm ERG. After tasting each sample and before tasting the next sample, the mouth was completely rinsed with water at room temperature.

[5] = Test 9 (6): paired comparison test of sweetness, 0.1% stevia sample; assay type: in vivo; conditions: 0.1% stevia samples
Text: Pairs combining a control 0.1% stevia sample and a 0.1% stevia sample containing ERG at each concentration were presented, and the panel evaluated which sample of the presented pair was perceived to be sweeter by a paired comparison test.

[6] = Test 9 (5): paired comparison test of sweetness, 10% aspartame sample; assay type: in vivo; conditions: 10% aspartame samples
Method: Samples were prepared by adding ERG to a 10% aspartame sample of aspartame (Pal Sweet Slim Up Sugar, Ajinomoto Co., Inc.) to the ERG concentrations shown in Table 16 (ERG0 to 20). Pairs combining a control 10% aspartame sample and a 10% aspartame sample containing ERG at each concentration were presented, and the panel evaluated which sample of the presented pair was perceived to be sweeter by a paired comparison test.

[7] = assay type: in vivo; conditions: 50% trehalose samples
Method: as §1
In the following Test 9, sensory evaluation was performed by a panel of three experts in the same paired comparison test as in Tests 3, 5, and 7.
Samples were prepared by adding ergothioneine to a 50% trehalose sample to final concentrations of 0.5 ppm, 1 ppm, 3 ppm, 5 ppm, 10 ppm, and 20 ppm (Table 11, ERG0 to 20).
For the 50% trehalose samples to which ERG was added at each concentration (the concentration was not disclosed to the panel), pairs combining a control 50% trehalose sample and a 50% trehalose sample containing ergothioneine at each concentration were presented to the expert panel, and the panel evaluated which sample of the presented pair was perceived to be sweeter by a paired comparison test.

[8] = assay type: in vivo; conditions: amakuchi soy sauce
Method: as §1, §2
The same test as in (1) described above was conducted by adding ERG to a commercially available amakuchi soy sauce (Golden Murasaki, Fundokin Shoyu).

[9] = Test 5: sensory evaluation, selection of glucose sample of equivalent sweetness; assay type: in vivo; conditions: 15% glucose sample containing 60 ppm ERG
Method: Glucose was added to pure water to prepare glucose samples having six concentrations of 0%, 13%, 14%, 15%, 16%, and 17%; and as a seventh sample, a sample in which ergothioneine was added to 15% glucose to a final concentration of 60 ppm was prepared.
Sweetness was sensorially evaluated by the same expert panel of five trained sweetness-sensitive subjects as in Test 1. The panel of five experts was asked to select a sample having an equivalent sweetness from among the 1st to 6th glucose samples (the concentration was not disclosed to the panel) regarding the sweetness of the 7th 15% glucose sample containing 60 ppm ERG.

[10] = Test 9 (7): paired comparison test of sweetness, 12.5% glycine sample; assay type: in vivo; conditions: 12.5% glycine samples
Text: Pairs combining a control 12.5% glycine sample and a 12.5% glycine sample containing ERG at each concentration were presented, and the panel evaluated which sample of the presented pair was perceived to be sweeter by a paired comparison test.

SMILES: C[N+](C)(C)[C@@H](Cc1c[nH]c(=S)[nH]1)C(=O)[O-] [ERG, Ergothioneine]
- ERG added at which all the panelists evaluated that the sweetness was enhanced [1]: ≥ 10 ppm
- ERG content at which all the panelists evaluated that the sweetness was enhanced [2]: ≥ 30 ppm
- ERG content above which the degree of sweetness enhancement did not change ([2]; 345 ppm judged equivalent by a majority of the panelists): 145 ppm
- sucrose solution of equivalent sweetness [3]: 0%
- sucrose solution of equivalent sweetness [4]: 2.5%
- ERG added at which all the panelists evaluated that the sweetness was enhanced [5]: ≥ 0.5 ppm
- ERG having a sweetness-enhancing effect, based on the stevia content [5]: ≥ 0.05 % by weight
- ERG added at which three panelists evaluated that the sweetness was enhanced [6]: ≥ 0.5 ppm
- ERG having a sweetness-enhancing effect, based on the aspartame content [6]: ≥ 0.0005 % by weight
- ERG added at which all the panelists evaluated that the sweetness was enhanced [7]: ≥ 0.5 ppm
- ERG having a sweetness-enhancing effect, based on the trehalose content [7]: ≥ 0.0001 % by weight
- ERG added at which all the panelists evaluated that the sweetness was enhanced [8]: ≥ 10 ppm
- glucose solution of equivalent sweetness ([9]; three of the five panelists): 16%
- glucose solution of equivalent sweetness ([9]; two of the five panelists): 17%
- ERG added at which all the panelists evaluated that the sweetness was enhanced [10]: ≥ 0.5 ppm
- ERG having a sweetness-enhancing effect, based on the glycine content [10]: ≥ 0.0004 % by weight
